Test results published in publication PMC8839585, “Development of a Real-Time Pectic Oligosaccharide-Detecting Biosensor Using the Rapid and Flexible Computational Identification of Non-Disruptive Conjugation Sites (CINC) Biosensor Design Platform” (Sensors (Basel, Switzerland), 2022).

What was measured:
[1] = biological target: T1, TogB (Yersinia enterocolitica, UniProt A0ACH1C7V4, D363C); experiment: stopped-flow fluorescence titration of MDCC-labelled purified protein; type: binding
T1 construct: gene yesO; TogB without signal secretion peptide, D363C conjugated to MDCC
T1 sequence (A0ACH1C7V4 27-430 D363C): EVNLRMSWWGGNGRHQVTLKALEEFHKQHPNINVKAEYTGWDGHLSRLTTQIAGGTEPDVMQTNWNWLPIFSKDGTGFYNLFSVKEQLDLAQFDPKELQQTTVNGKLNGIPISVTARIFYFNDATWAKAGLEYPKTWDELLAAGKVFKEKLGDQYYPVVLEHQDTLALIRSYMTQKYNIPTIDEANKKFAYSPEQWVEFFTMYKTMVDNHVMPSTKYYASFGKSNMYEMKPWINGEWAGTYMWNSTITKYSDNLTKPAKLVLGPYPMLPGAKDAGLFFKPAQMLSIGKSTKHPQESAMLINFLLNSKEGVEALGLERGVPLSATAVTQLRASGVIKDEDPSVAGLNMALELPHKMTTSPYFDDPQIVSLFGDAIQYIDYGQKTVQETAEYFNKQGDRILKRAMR

[2] = biological target: T1, TogB; experiment: equilibrium fluorescence change of MDCC-labelled purified protein at […] ligand (n = […]); type: binding

| Compound | Kd [1] [µM] | fluorescence change [2] [%] |
| --- | --- | --- |
| O=C(O)[C@H]1O[C@H](O[C@@H]2[C@H](O)[C@@H](O)C(O)O[C@@H]2C(=O)O)[C@H](O)[C@@H](O)[C@H]1O (stereo partly drawn) [digalUA, digalacturonic acid] | 6 ± 1 |  |
| O=C(O)[C@H]1O[C@H](O[C@@H]2[C@H](O)[C@@H](O)[C@@H](O[C@@H]3[C@H](O)[C@@H](O)C(O)O[C@@H]3C(=O)O)O[C@@H]2C(=O)O)[C@H](O)[C@@H](O)[C@H]1O (stereo partly drawn) [trigalUA, trigalacturonic acid] |  | −44 |
| O=C(O)C1=C[C@H](O)[C@@H](O)[C@@H](O[C@@H]2[C@H](O)[C@@H](O)C(O)O[C@@H]2C(=O)O)O1 (stereo partly drawn) [unsatdigalUA, 4,5-unsaturated digalacturonic acid] | 1.3 ± 0.5 |  |
